Legend:
Assay in all cases: NCI 60 cell line screen
Format in all cases: cell-based
SF-539 = conditions: Homo sapiens; SF-539, CNS-Cancer; read-out: Percent growth
Procedure: (§1) Anticancer profiling over a panel of 60 cancer cell lines was carried out at the National Cancer Institute (NCI), Bethesda, Maryland, USA, https://dtp.cancer.gov/discovery_development/nci-60/methodology.htm (Last visit 22 September 2021), using the standard procedure (detailed procedure is located in the Supplementary Information page 50 s).
(§2) NCI standard procedure for 60 cell lines assay
(§3) The human tumor cell lines of the cancer screening panel are grown in RPMI 1640 mediu m containing 5% fetal bovine serum and 2 mM L-glutamine. For a typical screening experiment, cells are inoculated into 96 well microtiter plates in 100 μL at plating densities ranging from 5,000 to 40,000 cells/well depending on the doubling time of individual cell lines. After cell inoculation, the microtiter plates are incubated at 37° C, 5 % CO2, 95 % air and 100 % relative humidity for 24 h prior to addition of experimental drugs.
(§4) After 24 h, two plates of each cell line are fixed in situ with TCA, to represent a measurement of the cell population for each cell line at the time of drug addition (Tz). Experimental drugs are solubilized in dimethyl sulfoxide at 400-fold the desired final maximum test concentration (10 µM) and stored frozen prior to use. At the time of drug addition, an aliquot of frozen concentrate is thawed and diluted to twice the desired final maximum test concentration with co mp lete medium containing 50 μg/ml gentamicin. Additional four, 10-fold or ½ log serial dilutions are made to provide a total of five drug concentrations plus control. Aliquots of 100 μl of these different drug dilutions are added to the appropriate microtiter wells already containing 100 μl of medium, resulting in the required final drug concentrations.
(§5) Following drug addition, the plates are incubated for an additional 48 h at 37°C, 5 % CO2, 95 % air, and 100 % relative humidity. For adherent cells, the assay is terminated by the addition of cold TCA. Cells are fixed in situ by the gentle addition of 50 μl of cold 50 % (w/v) TCA (final concentration, 10 % TCA) and incubated for 60 minutes at 4°C. The supernatant is discarded, and the plates are washed five times with tap water and air dried. Sulforhodamine B (SRB) solution (100 μl) at 0.4 % (w/v) in 1 % acetic acid is added to each well, and plates are incubated for 10 minutes at room temperature. After staining, unbound dye is removed by washing five times with 1 % acetic acid and the plates are air dried. Bound stain is subsequently solubilized with 10 mM trizma base, and the absorbance is read on an automated plate reader at a wavelength of 515 nm. For suspension cells, the methodology is the same except that the assay is terminated by fixing settled cells at the bottom of the wells by g ently adding 50 μl of 80 % TCA (final concentration, 16 % TCA). Using the seven absorbance measurements [time zero, (Tz), control growth, (C), and test growth in the presence of drug at the five concentration levels (Ti)], the percentage growth is calculated at each of the drug concentrations levels. Percentage growth inhibition is calculated as:
(§6) [(Ti-Tz)/(C-Tz)] x 100 for concentrations for which Ti>/=Tz
(§7) [(Ti-Tz)/Tz] x 100 for concentrations for which Ti<Tz.
(§8) Three dose response parameters are calculated for each experimental agent. Growth inhibition of […]
(§9) resulting in a 50% reduction in the net protein increase (as measured by SRB staining) in control cells during the drug incubation. The drug concentration resulting in total growth inhibition […]
(§10) (TGI) is calculated from Ti = Tz.

A549/ATCC = conditions: Homo sapiens, Non-Small Cell Lung Cancer, read-out: Percent growth
Procedure: as §1, §2, §3, §4, §5, §6, §7, §8, §9, §10

HCC-2998 = conditions: Homo sapiens; HCC-2998, Colon Cancer; read-out: Percent growth
Procedure: as §1, §2, §3, §4, §5, §6, §7, §8, §9, §10

SF-268 = conditions: Homo sapiens; SF-268, CNS-Cancer; read-out: Percent growth
Procedure: as §1, §2, §3, §4, §5, §6, §7, §8, §9, §10

TK-10 = conditions: Homo sapiens; TK-10, Renal Cancer; read-out: Percent growth
Procedure: as §1, §2, §3, §4, §5, §6, §7, §8, §9, §10

HOP-62 = conditions: Homo sapiens; HOP-62, Non-Small Cell Lung Cancer; read-out: Percent growth
Procedure: as §1, §2, §3, §4, §5, §6, §7, §8, §9, §10

UACC-62 = conditions: Homo sapiens; UACC-62, Melanoma; read-out: Percent growth
Procedure: as §1, §2, §3, §4, §5, §6, §7, §8, §9, §10

SK-MEL-28 = conditions: Homo sapiens; SK-MEL-28, Melanoma; read-out: Percent growth
Procedure: as §1, §2, §3, §4, §5, §6, §7, §8, §9, §10

OVCAR-5 = conditions: Homo sapiens; OVCAR-5, Ovarian Cancer; read-out: Percent growth
Procedure: as §1, §2, §3, §4, §5, §6, §7, §8, §9, §10

MCF7 = conditions: Homo sapiens; MCF7, Breast Cancer; read-out: Percent growth
Procedure: as §1, §2, §3, §4, §5, §6, §7, §8, §9, §10

IGROV1 = conditions: Homo sapiens, IGROV-1; IGROV1, Ovarian Cancer; read-out: Percent growth
Procedure: as §1, §2, §3, §4, §5, §6, §7, §8, §9, §10

HS 578T = conditions: Homo sapiens, Breast Cancer, read-out: Percent growth
Procedure: as §1, §2, §3, §4, §5, §6, §7, §8, §9, §10

LOX IMVI = conditions: Homo sapiens, Melanoma, read-out: Percent growth
Procedure: as §1, §2, §3, §4, §5, §6, §7, §8, §9, §10

NCI-H322M = conditions: Homo sapiens, Non-Small Cell Lung Cancer, read-out: Percent growth
Procedure: as §1, §2, §3, §4, §5, §6, §7, §8, §9, §10

HL-60(TB) = conditions: Homo sapiens, Leukemia, read-out: Percent growth
Procedure: as §1, §2, §3, §4, §5, §6, §7, §8, §9, §10

MALME-3M = conditions: Homo sapiens, Melanoma, read-out: Percent growth
Procedure: as §1, §2, §3, §4, §5, §6, §7, §8, §9, §10

MDA-MB-231/ATCC = conditions: Homo sapiens, Breast Cancer, read-out: Percent growth
Procedure: as §1, §2, §3, §4, §5, §6, §7, §8, §9, §10

ACHN = conditions: Homo sapiens, Renal Cancer, read-out: Percent growth
Procedure: as §1, §2, §3, §4, §5, §6, §7, §8, §9, §10

MDA-MB-435 = conditions: Homo sapiens; MDA-MB-435, Melanoma; read-out: Percent growth
Procedure: as §1, §2, §3, §4, §5, §6, §7, §8, §9, §10

786-0 = conditions: Homo sapiens; 786-0, Renal Cancer; read-out: Percent growth
Procedure: as §1, §2, §3, §4, §5, §6, §7, §8, §9, §10

HCT-116 = conditions: Homo sapiens; HCT-116, Colon Cancer; read-out: Percent growth
Procedure: as §1, §2, §3, §4, §5, §6, §7, §8, §9, §10

SMILES | activity at 10 µM (SF-539) | activity at 10 µM (A549/ATCC) | activity at 10 µM (HCC-2998) | activity at 10 µM (SF-268) | activity at 10 µM (TK-10) | activity at 10 µM (HOP-62) | activity at 10 µM (UACC-62) | activity at 10 µM (SK-MEL-28) | activity at 10 µM (OVCAR-5) | activity at 10 µM (MCF7) | activity at 10 µM (IGROV1) | activity at 10 µM (HS 578T) | activity at 10 µM (LOX IMVI) | activity at 10 µM (NCI-H322M) | activity at 10 µM (HL-60(TB)) | activity at 10 µM (MALME-3M) | activity at 10 µM (MDA-MB-231/ATCC) | activity at 10 µM (ACHN) | activity at 10 µM (MDA-MB-435) | activity at 10 µM (786-0) | further results
O=S(=O)(NCCNc1nccc(-n2cnc3ccccc32)n1)c1ccccc1 [12a, N-(2-((4-(1H-benzo [d]imidazol-1-yl)pyrimidin-2-yl)amino)ethyl)benzenesulfonamide] | 96.1% | 104% | 106% | 94.1% | 104% | 90.7% | 78.3% | 108% | 92.5% | 89.3% | 89.9% | 93.5% | 95% | 94.9% | 113% | 101% | 87.6% | 94.2% | 109% | 103% | activity at 10 µM (HCT-116): 94.6%
O=S(=O)(NCCNc1nccc(-n2cnc3ccccc32)n1)c1ccc(F)cc1 [12b, N-(2-((4-(1H-benzo [d]imidazol-1-yl)pyrimidin-2-yl)amino)ethyl)-4-fluorobenzenesulfonamide] | 83.7% | 91.3% | 104% | 88.2% | 97.8% | 90.9% | 71.3% | 101% | 86.6% | 87.7% | 89.3% | 85.5% | 93.2% | 95.6% | 106% | 93.7% | 81.8% | 88.3% | 97.7% | 102% | activity at 10 µM (HCT-116): 83.6%
O=S(=O)(NCCNc1nccc(-n2cnc3ccccc32)n1)c1ccc(Cl)cc1 [12c, N-(2-((4-(1H-benzo [d]imidazol-1-yl)pyrimidin-2-yl)amino)ethyl)-4-chlorobenzenesulfonamide] | 91.2% | 103% | 101% | 92.3% | 101% | 95.4% | 86.4% | 101% | 91.7% | 87.9% | 98.2% | 88.1% | 93.5% | 95.3% | 113% | 99.5% | 90.5% | 96.4% | 100% | 99% | activity at 10 µM (HCT-116): 94.6%
O=S(=O)(NCCNc1nccc(-n2cnc3ccccc32)n1)c1ccc(Br)cc1 [12d, N-(2-((4-(1H-benzo [d]imidazol-1-yl)pyrimidin-2-yl)amino)ethyl)-4-bromobenzenesulfonamide] | 96.2% | 100% | 103% | 91.2% | 103% | 87.2% | 82.8% | 108% | 94% | 78.4% | 90.7% | 85.7% | 99.1% | 107% | 114% | 103% | 88.2% | 93.6% | 108% | 103% | activity at 10 µM (HCT-116): 99.8%
COc1ccc(S(=O)(=O)NCCNc2nccc(-n3cnc4ccccc43)n2)cc1 [12f, N-(2-((4-(1H-benzo [d]imidazol-1-yl)pyrimidin-2-yl)amino)ethyl)-4-methoxy benzenesulfonamide] | 96.2% | 94.6% | 99.7% | 86.7% | 92.5% | 94.6% | 76.6% | 97.9% | 93.9% | 86.2% | 89% | 84.1% | 91.7% | 92.6% | 106% | 91.7% | 92.1% | 97.1% | 96.6% | 93% | activity at 10 µM (HCT-116): 98%
O=S(=O)(NCCCNc1nccc(-n2cnc3ccccc32)n1)c1ccccc1 [12h, N-(3-((4-(1H-benzo [d]imidazol-1-yl)pyrimidin-2-yl)amino)propyl)benzenesulfonamide] | 89.4% | 97.6% | 107% | 91.7% | 103% | 96.9% | 85% | 105% | 99.1% | 87.7% | 107% | 93.7% | 91.7% | 109% | 104% | 108% | 92.4% | 95.7% | 95.5% | 98.8% | activity at 10 µM (HCT-116): 90.3%
O=S(=O)(NCCCNc1nccc(-n2cnc3ccccc32)n1)c1ccc(Cl)cc1 [12j, N-(3-((4-(1H-benzo [d]imidazol-1-yl)pyrimidin-2-yl)amino)propyl)-4-chloro benzenesulfonamide] | 91.9% | 99% | 108% | 98.2% | 104% | 101% | 81.5% | 108% | 105% | 89% | 114% | 105% | 107% | 104% | 108% | 103% | 89.4% | 94.1% | 95.5% | 103% | activity at 10 µM (HCT-116): 94.1%

Source: article PMC8508980, “Design, Synthesis and Anticancer Profile of New 4-(1H-benzo[d]imidazol-1-yl)pyrimidin-2-amine-Linked Sulfonamide Derivatives with V600EBRAF Inhibitory Effect” (International Journal of Molecular Sciences, 2021)
